From patent publication US10995091B2 (Proximagen, LLC, priority 2010, dated 2021)
Structures can show the parent of a compound that is named as a salt.

target: T1, Human CXCR4 transfected HEK293 cells (Homo sapiens, UniProt P61073); test: CXCR4 functional calcium assay (calcium flux FLIPR, antagonism of SDF1 response); format: cell-based; conditions: CXCR4 functional activity, antagonism of SDF1 (EC50 concentration), read-out: CXCR4 fKi
T1 construct: expressed in transfected cells; host or cells: HEK293
T1 sequence (P61073 whole entry): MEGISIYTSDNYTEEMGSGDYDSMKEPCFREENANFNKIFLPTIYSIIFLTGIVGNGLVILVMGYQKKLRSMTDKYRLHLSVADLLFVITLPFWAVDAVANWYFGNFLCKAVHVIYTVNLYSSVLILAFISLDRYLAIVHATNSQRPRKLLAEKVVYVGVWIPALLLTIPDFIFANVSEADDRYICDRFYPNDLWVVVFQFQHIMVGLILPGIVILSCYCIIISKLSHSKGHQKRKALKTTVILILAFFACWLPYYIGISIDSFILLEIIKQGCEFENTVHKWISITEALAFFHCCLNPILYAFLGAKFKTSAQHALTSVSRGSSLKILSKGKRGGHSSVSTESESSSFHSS
Description: The functional activity of test compounds was routinely tested by measuring the ability of compounds to antagonize CXCR4 activity in a dose dependent manner, using a calcium flux Fluorescent Imaging Plate Reader FLIPR assay.
Human CXCR4 transfected HEK293 cells were cultured in Dulbecco's modified Eagles medium containing 4.5 g/L glucose, L-glutamine, pyruvate, 50 µg/mL Geneticin and 250 µg/mL hygromycin B and maintained at 37° C. in a humidified, 5% CO2 controlled atmosphere. Subcultivations were performed every 2-3 d.
At confluence the cells were lifted using Ca^2+ and Mg^2+ free PBS/0.02% (w/v) EDTA, spun at 1000 rpm for 3 min and resuspended at 2.5×10^5 cells/mL. Cells were plated into a 384 well, poly-d-lysine coated, black with clear bottomed plate (Becton Dickinson) at 7500 cells/well. The plates were incubated overnight at 37° C. under 5% CO2. On the day of the experiment the cells were washed with incubation Buffer (HBSS containing 2.5 mM probenecid, 0.1% w/v BSA and 10 mM HEPES, pH 7.4 at 37° C.). After washing, the cells were loaded with Fluo-4 AM dye (Molecular probes) at 2 µM containing 0.48 µg/mL pluronic acid for 60 min at 37° C. under 5% CO2. After thorough washing with incubation buffer the cells were preincubated for 10 min at 37° C. before use.
A combined agonist/antagonist protocol was used to measure changes in intracellular calcium concentration. Compound (antagonist) was added to the cell plate using a Fluorometric Imaging Plate Reader (FLIPR) (Molecular Devices, Sunnyvale, Calif., USA). Basal fluorescence was recorded every second for 10 seconds prior to compound addition (10 μl) and fluorescence recorded every second for 1 min then every 6 seconds for a further 1 min. SDF1[…] (EC50 concentration) was then added using the FLIPR and fluorescence recorded as described above. Curve-fitting and parameter estimation were carried out using GraphPad Prism 4.0 (GraphPad Software Inc., San Diego, Calif.).

Structure (SMILES) | Ki [nM]
C[C@H](N1CCC(N2CCCN(c3cccc(C(=O)NCC4CC4)n3)CC2)CC1)C(F)(F)F [Example 69, N-(Cyclopropylmethyl)-6-(4-{1-[(2S)-1,1,1-trifluoropropan-2-yl]piperidin-4-yl}-1,4-diazepan-1-yl)pyridine-2-carboxamide] | 100 to 500
CC(C)(C)N1CCC(N2CCCN(c3cccc(C(=O)Nc4ccncc4)n3)CC2)CC1 [Example 80, 6-[4-(1-tert-Butylpiperidin-4-yl)-1,4-diazepan-1-yl]-N-(pyridine-4-yl)pyridine-2-carboxamide] | < 20
O=C(Nc1cccnc1)c1cccc(N2CCCN(C3CCN(Cc4ccccc4Cl)CC3)CC2)n1 [Example 53] | 20 to 100
Cc1cc(NC(=O)c2cccc(N3CCCN(C4CCN(Cc5ccccc5Cl)CC4)CC3)n2)ccn1 [Example 84, 6-(4-{1-[(2-Chlorophenyl)methyl]piperidin-4-yl}-1,4-diazepan-1-yl)-N-(2-methylpyridine-4-yl)pyridine-2-carboxamide] | < 20
CC(C)N1CCC(N2CCCN(c3cccc(-c4ncc(C5CC5)[nH]4)n3)CC2)CC1 [Example 111, 1-[6-(4-Cyclopropyl-1H-imidazol-2-yl)pyridine-2-yl]-4-[1-(propan-2-yl)piperidin-4-yl]-1,4-diazepane] | < 20
CC(C)N1CCC(N2CCCN(c3cccc(C(=O)N4CCc5ccccc54)n3)CC2)CC1 [Example 21, 1-[(6-{4-[1-(Propan-2-yl)piperidin-4-yl]-1,4-diazepan-1-yl}pyridin-2-yl)carbonyl]-2,3-dihydro-1H-indole] | 100 to 500
CC(C)N1CCC(N2CCCN(c3cccc(C(=O)NCCN(C)C)n3)CC2)CC1 [Example 16, N-[2-(Dimethylamino)ethyl]-6-{4-[1-(propan-2-yl)piperidin-4-yl]-1,4-diazepan-1-yl}pyridine-2-carboxamide] | 100 to 500
CCN1CCC(N2CCCN(c3cccc(C(=O)NCC4CC4)n3)CC2)CC1 [Example 60, N-(Cyclopropylmethyl)-6-[4-(1-ethylpiperidin-4-yl)-1,4-diazepan-1-yl]pyridine-2-carboxamide] | 500 to 1000
COCCN1CCC(N2CCCN(c3cccc(C(=O)NCC4CC4)n3)CC2)CC1 [Example 71, N-(Cyclopropylmethyl)-6-{4-[1-(2-methoxyethyl)piperidin-4-yl]-1,4-diazepan-1-yl}pyridine-2-carboxamide] | 500 to 1000
O=C(NC[C@H]1CCCO1)c1cccc(N2CCCN(C3CCN(Cc4ccccc4Cl)CC3)CC2)n1 [Example 51, 6-(4-{1-[(2-Chlorophenyl)methyl]piperidin-4-yl}-1,4-diazepan-1-yl)-N-[(2R)-oxolan-2-ylmethyl]pyridine-2-carboxamide] | 20 to 100
CC(C)N1CCC(N2C3CCCC2CN(c2cccc(C(=O)NCC4CC4)n2)CC3)CC1 (stereo not shown) [Example 217, N-(Cyclopropylmethyl)-6-{10-[1-(propan-2-yl)piperidin-4-yl]-3,10-diazabicyclo[4.3.1]decan-3-yl}pyridine-2-carboxamide] | 100 to 500
O=C(NCC1CCOCC1)c1cccc(N2CCCN(C3CCN(Cc4ccccc4Cl)CC3)CC2)n1 [Example 47, 6-(4-{1-[(2-Chlorophenyl)methyl]piperidin-4-yl}-1,4-diazepan-1-yl)-N-(oxan-4-ylmethyl)pyridine-2-carboxamide] | < 20
CCCCNC(=O)c1cccc(N2CCCN(C3CCN([C@@H](C)C(F)(F)F)CC3)CC2)n1 [Example 93, N-Butyl-6-(4-{1-[(2S)-1,1,1-trifluoropropan-2-yl]piperidin-4-yl}-1,4-diazepan-1-yl)pyridine-2-carboxamide] | 20 to 100
CC(C)(N1CCC(N2CCCN(c3cccc(C(=O)NCc4cccnc4)n3)CC2)CC1)C(F)(F)F [Example 91, N-(Pyridin-3-ylmethyl)-6-{4-[1-(1,1,1-trifluoro-2-methylpropan-2-yl)piperidin-4-yl]-1,4-diazepan-1-yl}pyridine-2-carboxamide] | 100 to 500

Now from value to compound:

Ki [nM] | Structure (SMILES)
< 20 | [2H]C1([2H])CCN(c2cccc(C(=O)Nc3ccncc3)n2)CC(C)N1C1CCN(Cc2ccccc2Cl)CC1 (stereo not shown) [Example 206, 6-(4-{1-[(2-Chlorophenyl)methyl]piperidin-4-yl}-5,5-dihydrogenio-3-methyl-1,4-diazepan-1-yl)-N-(pyridin-4-yl)pyridine-2-carboxamide]
< 20 | CC(C)N1CCC(N2CCCN(c3cccc(C(=O)Nc4ccncc4)n3)CC2)C(F)C1 (stereo not shown) [Example 210, 6-{4-[3-Fluoro-1-(propan-2-yl)piperidin-4-yl]-1,4-diazepan-1-yl}-N-(pyridin-4-yl)pyridine-2-carboxamide]
100 to 500 | c1cc(NCCNC2CCCN(C3CCCC3)C2)nc(-c2ncc(C3CC3)[nH]2)c1 (stereo not shown) [Example 230, 1-Cyclopentyl-N-(2-{[6-(5-cyclopropyl-1H-imidazol-2-yl)pyridin-2-yl]amino}ethyl)piperidin-3-amine]
500 to 1000 | OCc1cccc(N2CCCN(C3CCN(Cc4ccccc4Cl)CC3)CC2)n1 [Example 260, [6-(4-{1-[(2-Chlorophenyl)methyl]piperidin-4-yl}-1,4-diazepan-1-yl)pyridin-2-yl]methanol]
100 to 500 | COc1ccc(C(=O)NCC2CC2)nc1N1CCCN(C2CCN(Cc3ccccc3Cl)CC2)CC1 [Example 270, 6-(4-{1-[(2-Chlorophenyl)methyl]piperidin-4-yl}-1,4-diazepan-1-yl)-N-(cyclopropylmethyl)-5-methoxypyridine-2-carboxamide]
500 to 1000 | CC(C)N1CCC(N2CCCN(c3cccc(-c4nc(C5CC5)no4)n3)CC2)CC1 [Example 169, 1-[6-(3-Cyclopropyl-1,2,4-oxadiazol-5-yl)pyridin-2-yl]-4-[1-(propan-2-yl)piperidin-4-yl]-1,4-diazepane]
< 20 | [2H]C1([2H])CCN(c2cccc(C(=O)Nc3ccncc3)n2)CCN1C1CCN([C@@H](C)CC)CC1 [Example 189, 6-(4-{1-[(2S)-Butan-2-yl]piperidin-4-yl}-5,5-dihydrogenio-1,4-diazepan-1-yl)-N-(pyridin-4-yl)pyridine-2-carboxamide]
20 to 100 | CC(C)N1CCC(N2CCN(c3cccc(C(=O)NCC4CC4)n3)CCC2C)CC1 (stereo not shown) [Example 184, N-(Cyclopropylmethyl)-6-{5-methyl-4-[1-(propan-2-yl)piperidin-4-yl]-1,4-diazepan-1-yl}pyridine-2-carboxamide]
100 to 500 | CC(C)N1CCC(N2CCCN(c3cccc(-c4noc(-c5cccnc5)n4)n3)CC2)CC1 [Example 166, 1-[1-(Propan-2-yl)piperidin-4-yl]-4-{6-[5-(pyridine-3-yl)-1,2,4-oxadiazol-3-yl]pyridine-2-yl}-1,4-diazepane tetrahydrochloride]
100 to 500 | O=C(NCC1CC1)c1cccc(N2CCCN(CCCNCc3ccccc3Cl)CC2)n1 [Example 258, 6-[4-(3-{[(2-Chlorophenyl)methyl]amino}propyl)-1,4-diazepan-1-yl]-N-(cyclopropylmethyl)pyridine-2-carboxamide]
100 to 500 | CC(C)N1CCC(NCCCNc2cccc(C(=O)Nc3ccncc3)n2)CC1 [Example 239, 6-[(3-{[1-(Propan-2-yl)piperidin-4-yl]amino}propyl)amino]-N-(pyridin-4-yl)pyridine-2-carboxamide]
20 to 100 | [2H]C1([2H])CCN(c2cccc(C(=O)Nc3ccncc3)n2)CCN1C1CCN(C(C)C)CC1F (stereo not shown) [Example 187, 6-{4-[3-Fluoro-1-(propan-2-yl)piperidin-4-yl]-5,5-dihydrogenio-1,4-diazepan-1-yl}-N-(pyridin-4-yl)pyridine-2-carboxamide]
100 to 500 | NC(=O)c1cccc(N2CCCN(C3CCN(Cc4ccccc4Cl)CC3)CC2)n1 [Example 136, 6-(4-{1-[(2-Chlorophenyl)methyl]piperidin-4-yl}-1,4-diazpan-1-yl)pyridine-2-carboxamide]
100 to 500 | Clc1ccccc1CN1CCC(N2CCCN(c3ccccn3)CC2)CC1 [Example 261, 1-{1-[(2-Chlorophenyl)methyl]piperidin-4-yl}-4-(pyridin-2-yl)-1,4-diazepane]
100 to 500 | CC(C)N1CCC(N2CCC(C)N(c3cccc(C(=O)NCC4CC4)n3)CC2)CC1 (stereo not shown) [Example 174, N-(Cyclopropylmethyl)-6-{7-methyl-4-[1-(propan-2-yl)piperidin-4-yl]-1,4-diazepan-1-yl}pyridine-2-carboxamide]
20 to 100 | Cc1nc(-c2cccc(N3CCCN(C4CCN(C(C)C)CC4F)CC3)n2)[nH]c1C1CC1 (stereo not shown) [Example 213, 1-[6-(4-Cyclopropyl-5-methyl-1H-imidazol-2-yl)pyridin-2-yl]-4-[3-fluoro-1-(propan-2-yl)piperidin-4-yl]-1,4-diazepane]
100 to 500 | Cc1nc(-c2cccc(NCCNC3CCN(C4CCCC4)CC3)n2)[nH]c1C1CC1 [Example 232, 1-Cyclopentyl-N-(2-{[6-(5-cyclopropyl-4-methyl-1H-imidazol-2-yl)pyridin-2-yl]amino}ethyl)piperidin-4-amine]
